According to patent publication US6723567B1, “Screening method for apoptosis and necrosis” (Aponetics Ltd., priority 1998, dated 2004):
“Also recorded” adds a separate entry of the source. Numbered stars: 1 amine (or outer) side, 2 acyl side, 3 side chain; on linkers, the order of the positions; unused ones are H or OH. Bridge positions count the residues as written; N and C are the ends. Square brackets hold non-standard residues; d marks the D form. Peptide text beside a SMILES is read from it. I, II: the chains in the order shown. Actinocin(9to1) = Cc1c2oc3c(C)ccc(C(=O)[*:1])c3nc-2c(C(=O)[*:2])c(N)c1=O; NMeV = CN[C@H](C(=O)O)C(C)C; Sar = CNCC(=O)O

B1: recombinant human TRAIL: TNF-related apoptosis inducing ligand, a known cell death inducer in Jurkat cells (protein, UniProt P50591 1-281, looked up)
Tumor necrosis factor ligand …: MAMMEVQGGPSLGQTCVLIVIFTVLLQSLCVAVTYVYFTNELKQMQDKYSKSGIACFLKEDDSYWDPNDEESMNSPCWQVKWQLRQLVRKMILRTSEETISTVQEKQQNISPLVRERGPQRVAAHITGTRGRSNTLSSPNSKNEKALGRKINSWESSRSGHSFLSNLHLRNGELVIHEKGFYYIYSQTYFRFQEEIKENTKNDKQMVQYIYKYTSYPDPILLMKSARNSCWSKDAEYGLYSIYQGGIFELKENDRIFVSVTNEHLIDMDHEASFFGAFLVG

Tests used:
A20GFP = experiment: ActD/CHX interference with the GFP apoptosis assay in A20GFP; assay type: cell-based, murine; details: for inhibition of sFasL SN induced apoptosis: 5 μg/ml ActD and/or 10 μg/ml CHX with 100 μl sFasL SN, 10 hours; for fluorescence intensity / fluorescing capacity of A20GFP: 5 μg/ml ActD and/or 10 μg/ml CHX, 10 hours at 37° C.
Method: To find out whether the fluorescence of A20GFP and the GFP apoptosis assay as described in example 7 is dependent on the de novo transcription and protein synthesis, Act D (pharmacy of the University Hospital, Basel), a RNA synthesis inhibitor, and Cycloheximide (Sigma), a protein synthesis inhibitor, were tested in our experimental protocol. After washing A20GFP cells with PBS, 250000 cells were aliquoted in FACS-tubes and incubated with:
a) Tube 1 (control): 500 μl medium complete (MC)
b) Tube 2: 100 μl sFasL SN and 400 μl MC
c) Tube 3: 500 μl MC and 5 μg/ml ActD
d) Tube 4: 400 μl MC, 100 μl sFasL SN, 5 μg/ml ActD
e) Tube 5: 500 μl MC and 10 μg/ml CHX
f) Tube 6: 400 μl MC, 100 μl sFasL SN and 10 μg/ml CHX
g) Tube 7: 500 μl MC, 5 μg/ml Act D and 10 μg/ml CHX
h) Tube 8: 400 μl MC, 100 μl sFasL SN, 5 μg/ml Act D and 10 μg/ml CHX
Tubes 1-8 (a-h) were incubated for 10 hours at 37° C. The fluorescing status of the cells was assayed at 10 hours post treatment.

JurkatGFP = experiment: Apoptosis assay: induction of apoptosis in JurkatGFP by recombinant human TRAIL; assay type: cell-based
Method: This apoptosis assay has been performed with recombinant human TRAIL, a known cell death inducer in Jurkat cells. 250,000 JurkatGFP cells were aliquoted in two different FACS-tubes.
Tube 1: (control): cells were incubated with 500 μl RPMI medium,
Tube 2: cells were incubated with 25 μl recombinant human TRAIL and 475 μl RPMI medium.
Both tubes were incubated for 18 hours at 37° C. After incubation the test tubes were immediately measured without prior washing.

Molecule	inhibition of sFasL SN induced apoptosis (A20GFP)	fluorescence intensity / fluorescing capacity of A20GFP (A20GFP)	induction of apoptosis in JurkatGFP (JurkatGFP; 25 μl recombinant human TRAIL in 500 μl, 18 hours at 37° C.)	dose dependence of apoptosis induction in JurkatGFP (JurkatGFP; data not shown)
Cc1c2oc3c(C)ccc(C(=O)N[C@@H]4C(=O)N[C@H](C(C)C)C(=O)N5CCC[C@H]5C(=O)N(C)CC(=O)N(C)[C@@H](C(C)C)C(=O)O[C@@H]4C)c3nc-2c(C(=O)N[C@@H]2C(=O)N[C@H](C(C)C)C(=O)N3CCC[C@H]3C(=O)N(C)CC(=O)N(C)[C@@H](C(C)C)C(=O)O[C@@H]2C)c(N)c1=O [ActD, Actinomycin D] (I: T[dV]P[Sar][NMeV] / II: T[dV]P[Sar][NMeV]; ester I:1-I:C, II:1-II:C; linker I:N-II:N via Actinocin(9to1))	nor do they inhibit sFasL SN induced apoptosis	do not substantially interfere with the fluorescing capacity of A20GFP; also recorded: Neither a reduction of GFP-associated fluorescence		
C[C@@H]1C[C@@H]([C@H](O)CC2CC(=O)NC(=O)C2)C(=O)[C@@H](C)C1 [CHX, Cycloheximide]	nor do they inhibit sFasL SN induced apoptosis	do not substantially interfere with the fluorescing capacity of A20GFP; also recorded: Neither a reduction of GFP-associated fluorescence		
B1			induced apoptosis in JurkatGFP cells	dose dependent manner
